Legend:
[1] = target: T1, A2BR (Homo sapiens, UniProt P29275); assay: A2BR potency (KB), Table 1; type: biochemical
T1 sequence (P29275 1-332): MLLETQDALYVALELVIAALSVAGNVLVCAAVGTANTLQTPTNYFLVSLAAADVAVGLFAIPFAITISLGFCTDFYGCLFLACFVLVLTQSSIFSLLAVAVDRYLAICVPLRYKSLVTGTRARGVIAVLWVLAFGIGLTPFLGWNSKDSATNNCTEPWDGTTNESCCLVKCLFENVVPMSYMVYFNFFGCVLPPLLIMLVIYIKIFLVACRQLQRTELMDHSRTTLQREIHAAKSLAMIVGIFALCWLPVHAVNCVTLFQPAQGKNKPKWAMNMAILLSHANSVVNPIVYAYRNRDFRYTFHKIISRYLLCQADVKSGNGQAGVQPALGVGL

[2] = target: A2AR (Homo sapiens, UniProt P29274); assay: A2AR potency (KB), Table 1; type: biochemical; conditions: read-out: Potency: A2AR KB (A2A)
Sequence of A2AR (P29274 whole entry): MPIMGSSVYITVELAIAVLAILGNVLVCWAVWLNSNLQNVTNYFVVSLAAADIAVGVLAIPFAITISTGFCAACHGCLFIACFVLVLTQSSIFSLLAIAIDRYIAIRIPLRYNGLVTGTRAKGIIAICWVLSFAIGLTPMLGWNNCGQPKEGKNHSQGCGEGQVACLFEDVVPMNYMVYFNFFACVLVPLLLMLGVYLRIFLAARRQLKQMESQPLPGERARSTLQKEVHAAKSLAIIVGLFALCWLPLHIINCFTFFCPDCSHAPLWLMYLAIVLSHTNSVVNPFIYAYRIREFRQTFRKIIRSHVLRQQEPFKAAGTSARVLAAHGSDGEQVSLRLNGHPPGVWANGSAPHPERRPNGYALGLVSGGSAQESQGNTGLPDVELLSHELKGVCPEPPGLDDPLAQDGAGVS

| Kb [1] [nM] | Kb [2] [nM] | Structure (SMILES) |
| --- | --- | --- |
| < 100 | < 100 | Nc1nc(-c2cn(Cc3ccn[nH]3)nn2)c2cccc(F)c2n1 |
| < 100 | < 100 | COc1cccc2c(-c3cn(Cc4cc[nH]n4)nn3)nc(N)nc12 |
| < 100 | < 100 | COc1cccc2c(-c3cn(Cc4ccn(C5CC5)n4)nn3)nc(N)nc12 |
| < 100 | < 100 | COc1cccc2c(-c3cn(Cc4ccnn4C(C)C)nn3)nc(N)nc12 |
| < 100 | < 100 | COc1cccc2c(-c3cn(Cc4ccn(C(C)C)n4)nn3)nc(N)nc12 |
| < 100 | < 100 | COc1cccc2c(-c3cn(Cc4ccn(C5CC5)n4)nn3)cc(N)nc12 |
| < 100 | < 100 | COc1cccc2c(-c3cn(Cc4ccnn4C)nn3)nc(N)nc12 |
| < 100 | < 100 | COc1cccc2c(-c3cn(Cc4ccn(C)n4)nn3)nc(N)nc12 |
| < 100 | < 100 | CC(C)n1ccc(Cn2cc(-c3nc(N)nc4c(Cl)cccc34)nn2)n1 |
| < 100 | < 100 | CC(C)n1nccc1Cn1cc(-c2nc(N)nc3c(Cl)cccc23)nn1 |
| < 100 | < 100 | COc1c(F)ccc2c(-c3cn(Cc4ccnn4C(C)C)nn3)nc(N)nc12 |
| < 100 | < 100 | COc1c(F)ccc2c(-c3cn(Cc4ccn(C(C)C)n4)nn3)nc(N)nc12 |
| < 100 | < 100 | COc1cccc2c(-c3cn(Cc4ccn([C@@H]5CCOC5)n4)nn3)nc(N)nc12 |
| < 100 | < 100 | COc1cccc2c(-c3cn(Cc4ccn([C@H]5CCOC5)n4)nn3)nc(N)nc12 |
| < 100 | < 100 | COc1cccc2c(-c3cn(Cc4ccn(CC(C)(C)O)n4)nn3)nc(N)nc12 |
| < 100 | < 100 | CC(C)n1ccc(Cn2cc(-c3cc(N)nc4c(F)cccc34)nn2)n1 |
|  | < 100 | COc1cccc2c(-c3cn(Cc4ccnn4CCO)nn3)nc(N)nc12 |
|  | < 100 | COc1cccc2c(-c3cn(Cc4ccn(CCO)n4)nn3)nc(N)nc12 |
| < 100 | < 100 | CCn1ccc(Cn2cc(-c3nc(N)nc4c(OC)cccc34)nn2)n1 |
| 100 to 1000 | < 100 | COc1cccc2c(-c3cn(Cc4ccnn4CC4CCCO4)nn3)nc(N)nc12 (stereo not shown) |
| 100 to 1000 | < 100 | CCOc1cccc2c(-c3cn(Cc4ccn(C5CC5)n4)nn3)nc(N)nc12 |

| Kb [1] [nM] | Kb [2] [nM] | Structure (SMILES) |
| --- | --- | --- |
| 100 to 1000 | < 100 | CCOc1cccc2c(-c3cn(Cc4ccn(C(C)C)n4)nn3)nc(N)nc12 |
| < 100 | < 100 | Nc1nc(-c2cn(Cc3ccn(C4CC4)n3)nn2)c2ccc(F)c(F)c2n1 |
| 100 to 1000 | 100 to 1000 | COc1cccc2c(-c3cn(Cc4ccn(CC(=O)O)n4)nn3)nc(N)nc12 |
| < 100 | < 100 | CC(C)(O)Cn1ccc(Cn2cc(-c3cc(N)nc4c(F)cccc34)nn2)n1 |
| < 100 | < 100 | COc1cccc2c(-c3cn(Cc4ccn(CC(N)=O)n4)nn3)nc(N)nc12 |
| < 100 | < 100 | COc1cccc2c(-c3cn(Cc4ccn(CC(=O)N5CC(O)C5)n4)nn3)nc(N)nc12 |
| < 100 | < 100 | N#Cc1ccc2c(-c3cn(Cc4ccn(C5CC5)n4)nn3)nc(N)nc2c1 |
| 100 to 1000 | < 100 | COc1cccc2c(-c3cn(Cc4ccn(CC(=O)N[C@H]5CCOC5)n4)nn3)nc(N)nc12 |
| < 100 | < 100 | COc1cccc2c(-c3cn(Cc4ccn(CC(=O)NCC5(O)CC5)n4)nn3)nc(N)nc12 |
| 100 to 1000 | < 100 | COc1cccc2c(-c3cn(Cc4ccn(CCN5CCCC5=O)n4)nn3)nc(N)nc12 |
| < 100 | < 100 | COc1cccc2c(-c3cn(Cc4ccn(CCN5CCOCC5=O)n4)nn3)nc(N)nc12 |
| < 100 | < 100 | COc1cccc2c(-c3cn(Cc4cc(C(C)(C)O)[nH]n4)nn3)nc(N)nc12 |
| 100 to 1000 | < 100 | COc1cccc2c(-c3cn(Cc4ccn(C(C)C(=O)O)n4)nn3)nc(N)nc12 (stereo not shown) |
| < 100 | < 100 | COc1cccc2c(-c3cn(Cc4ccn(C(C)C(N)=O)n4)nn3)nc(N)nc12 (stereo not shown) |
| 100 to 1000 | < 100 | COc1cccc2c(-c3cn(Cc4ccn(CC(=O)N[C@@H]5CCOC5)n4)nn3)nc(N)nc12 |
| < 100 | < 100 | COc1cccc2c(-c3cn(Cc4ccn(C(C)(C)CO)n4)nn3)nc(N)nc12 |
| < 100 | < 100 | CC(C)(CO)n1ccc(Cn2cc(-c3nc(N)nc4c(F)cccc34)nn2)n1 |
| 100 to 1000 | < 100 | COc1c(F)ccc2c(-c3cn(Cc4ccn(C(C)(C)CO)n4)nn3)nc(N)nc12 |
| < 100 | < 100 | COc1ccc2c(-c3cn(Cc4ccn(C(C)(C)CO)n4)nn3)nc(N)nc2c1 |
| < 100 | < 100 | COCC(C)(C)n1ccc(Cn2cc(-c3nc(N)nc4c(OC)cccc34)nn2)n1 |
| < 100 | < 100 | COc1cccc2c(-c3cn(Cc4ccn(CC5CCOCC5)n4)nn3)nc(N)nc12 |
